# Measurements reported in patent publication US6303619A, “Meta-substituted acidic 8-phenylxanthine antagonists of A3 human adenosine receptors” (priority 1998, dated 2001).
# Target: T1, human A1 adenosine receptor (Homo sapiens, UniProt P30542)
# T1 construct: expressed in transfected cells; host or cells: COS7 or CHO cells
# T1 sequence (P30542 1-326): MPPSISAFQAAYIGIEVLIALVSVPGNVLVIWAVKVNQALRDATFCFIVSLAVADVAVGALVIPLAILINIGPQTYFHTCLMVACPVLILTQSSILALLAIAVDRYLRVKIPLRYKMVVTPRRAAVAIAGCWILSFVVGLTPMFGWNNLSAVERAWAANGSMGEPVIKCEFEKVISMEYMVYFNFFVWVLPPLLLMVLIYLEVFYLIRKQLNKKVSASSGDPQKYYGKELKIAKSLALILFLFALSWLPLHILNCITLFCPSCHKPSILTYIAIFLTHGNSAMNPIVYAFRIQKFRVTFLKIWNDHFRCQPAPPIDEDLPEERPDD
# Assay: competition binding, recombinant human A1 adenosine receptor
# Conditions: A3 versus A1
# Method: Monolayer cell culture of transfected COS7 cells were dissociated with 1 mM EDTA in phosphate buffered saline and resuspended in 5 mM Tris, pH7.6/10 mM MgCl2. The cells were subjected to freeze-thaw lysis and the suspension was homogenized in a glass dounce homogenizer. The membranes were pelleted, resuspended in binding buffer, 50 mM Tris pH 7.6/10 mM MgCl2 and incubated with adenosine deaminase before the binding assay. The binding assay was performed by incubating 50-100 Fg of membranes with increasing concentrations of radiolabeled adenosine agonists. Bound ligand was separated from free ligand by filtration on a SKATRON CELL […] equipped with a receptor binding filtermat. Bound radioactivity was measured by scintillation counting. Substances which bind to or enhance binding to expressed human adenosine receptors in COS and CHO cells can be identified in competition binding assays with radiolabeled adenosine or xanthine analogs. […] Protein concentration was determined by tie method of Bradford ((1976) Anal. Biochem. 72: 248-250). […] Bound radioactivity was measured by scintillation counting in READY SAFE SCINTILLATION COCKTAIL (BECKMAN). […] Non-specific binding was determined in the presence of 100 FM CPA. Bound radioactivity was measured by scintillation counting in READY SAFE LIQUID SCINTILLATION COCKTAIL (BECKMAN).
compound,measurement,value
CCCn1c(=O)c2[nH]c(-c3cccc(C=CC(=O)O)c3)nc2n(CCC)c1=O [BW-3911],fold selectivity for A3 compared to human A1,47 fold
